Consider one compound from patent US20110177541A1, “METHOD FOR ADJUSTING THE COAGULATION TIME IN CALIBRATOR OR CONTROL PLASMAS” (DIAGNOSTICA STAGO, priority 2010, published 2011).

In this test the test system is plasma coagulation time (PT). Description: Prothrombin time (PT) in STA NeoCl+ on treated (defrosted, pooled, excipient-supplemented, filtered) plasma. It counts as biochemical. The method, then:
The plasma bags were defrosted at 37° C.±2° C. in a defroster; once defrosted, the plasma was stabilized at 37° C.±2° C. for 30 minutes.
The bags were then pooled in a stainless steel container and the plasma was then homogenized using a magnetic stirrer.
The lyophilization excipients (lactose, saccharose, HEPES buffer) were added, stirring until dissolution was complete.
A sample was taken to measure the pH, the conductivity and to determine the PT on a STA Neo Cl+ apparatus using STA-R (Diagnostica STAGO).
The plasma was filtered on a CRK1 cartridge (Millipore) and a sample was taken to determine the PT in the NeoCl+ after filtration. […]
A sample of each point was tested in the STA NeoCl+; a range resulting from the addition of different concentrations of F VIIa was produced for each level as a function of the coagulation times obtained.
For each point, the concentration of added factor VIIa was determined as a function of the times on a reference graph obtained for fresh plasmas.
The F VIIa was then added, and homogenized and a sample of each point was taken in order to measure the pH, the conductivity and to determine the PT in the STA NeoCl+ using STA-R to verify that the desired times were indeed obtained, then each product was distributed and lyophilized.
In the table below, a range for procoagulant factor F VIIa has been produced for a range of concentrations of rivaroxaban.

Turning to `O=C(NC[C@H]1CN(c2ccc(N3CCOCC3=O)cc2)C(=O)O1)c1ccc(Cl)s1` [rivaroxaban], for the setting “500 ng/mL of rivaroxaban, FIG. 1”, the “PT divergence of treated plasma with respect to fresh plasma” value amounted to 13 s. For the same compound, the “Time in NeoCl+” value was found to be 14.4 s (rivaroxaban 25 ng/mL, FVIIa 0 IU/mL); 13.7 s (rivaroxaban 25 ng/mL, FVIIa 0.1 IU/mL); 15.3 s (rivaroxaban 50 ng/mL, FVIIa 0 IU/mL); 14.3 s (rivaroxaban 50 ng/mL, FVIIa 0.2 IU/mL); 14.6 s (rivaroxaban 50 ng/mL, FVIIa 0.3 IU/mL); 14.6 s (rivaroxaban 50 ng/mL, FVIIa 0.4 IU/mL). Moreover, the “Time in NeoCl+” value stood at 21.2 s (rivaroxaban 200 ng/mL, FVIIa 0 IU/mL); 19.8 s (rivaroxaban 200 ng/mL, FVIIa 0.1 IU/mL); 19 s (rivaroxaban 200 ng/mL, FVIIa 0.2 IU/mL); 23.5 s (rivaroxaban 250 ng/mL, FVIIa 0 IU/mL); 21 s (rivaroxaban 250 ng/mL, FVIIa 0.2 IU/mL); 20.3 s (rivaroxaban 250 ng/mL, FVIIa 0.3 IU/mL). Moreover, the “Time in NeoCl+” value (rivaroxaban 250 ng/mL, FVIIa 0.4 IU/mL) came out at 19.9 s; the “Time in NeoCl+” value (rivaroxaban 500 ng/mL, FVIIa 0 IU/mL) came out at 32 s; the “Time in NeoCl+” value (rivaroxaban 500 ng/mL, FVIIa 0.1 IU/mL) stood at 29.9 s; the “Time in NeoCl+” value (rivaroxaban 500 ng/mL, FVIIa 0.2 IU/mL) came to 28.4 s; the “Time in NeoCl+” value (rivaroxaban 500 ng/mL, FVIIa 0.3 IU/mL) is 27.5 s; the “Time in NeoCl+” value (rivaroxaban 500 ng/mL, FVIIa 0.4 IU/mL) amounted to 26.8 s. Also, the “Time in NeoCl+” value came out at 43.5 s (rivaroxaban 800 ng/mL, FVIIa 0 IU/mL); 38.3 s (rivaroxaban 800 ng/mL, FVIIa 0.2 IU/mL); 36.6 s (rivaroxaban 800 ng/mL, FVIIa 0.3 IU/mL).
